The numbers were not newly measured in patent publication US20070026077A1 (priority 2003, published 2007), which cites them from elsewhere.

Data set [1] has as its system small-cell lung carcinoma. The settings on record: patients with small-cell lung carcinoma.
For data set [2] the following is noted: white crystalline light powder.

In the case of `CC(=O)CC(c1ccccc1)c1c(O)c2ccccc2oc1=O` (stereo not shown) [warfarin], in data set [1], the survival time entry is “prolongation of survival time” and the tumor disease progression entry is “statistically significant retardation of tumor disease progression”. The “bound to plasmatic proteins” value with plasmatic proteins is “About 97%”.
As for `CC(=O)CC(c1ccccc1)c1c([O-])c2ccccc2oc1=O.[Na+]` (stereo not drawn) [warfarin sodium salt, sodium salt of 3-(α-acetonylbenzyl)-4-hydroxy-coumarin], in data set [2], the hygroscopicity entry is “hygroscopic”.
